The values that follow come from patent publication US6653258B1 (priority 1987, dated 2003).

Series [1] has as its system Peanut plants, cv. Tomnut. The experiment in a line: Phytotoxicity on peanut plants, root drench (Table VI). Format: in vivo. Conditions: for phytotoxicity, linear 0-5 scale, Peanut: 100 ppm root drench, assessed one week after treatment, four replicates. As for the experimental part:
Peanut plants, cv. Tomnut, were propagated in John Innes No. 1 compost. […] Uniform, 8-10 day-old plants were selected for the experiments.
Phytotoxicity was assessed on a linear 0- 5 scale where grade 1 ═slight damage and grade 5 ═dead plant.

The subject of series [2] is Tomato plants, cv. Outdoor Girl. Put plainly: Phytotoxicity on tomato plants, spray to maximum retention (Table VII). Particulars: for phytotoxicity, linear 0-5 scale, Tomato: assessed one week after treatment, four replicates.
Series [3] relates to foliar fungal diseases of plants. Format: in vivo. Particulars: applied to soil (roots) and foliage one or two days before inoculation; for disease control grading, CERCOSPORA ARACHIDICOLA (PEANUT): Cercospora arachidicola on peanut; for disease control grading, P[…] (RICE): P[…] on rice; for disease control grading, PH[…] (TOMATO): Ph[…] on tomato; for disease control grading, PUCCINIA RECONDITA (WHEAT): Puccinia recondita on wheat; for disease control grading, VENTURIA INAEQUALIS (APPLE): Venturia inaequalis on apple; for disease control grading, […] (VINE): […] on vine. Further details: key to disease control grading, […] (VINE): 4: no disease; 3: trace −5% of disease on untreated plants; key to disease control grading, PUCCINIA RECONDITA (WHEAT) / disease control grading, VENTURIA INAEQUALIS (APPLE) / disease control grading, CERCOSPORA ARACHIDICOLA (PEANUT) / disease control grading, PH[…] (TOMATO) / disease control grading, P[…] (RICE): 4: no disease; 3: trace −5% of disease on untreated plants; 6-25% of disease on untreated plants; 1: 26-59% of disease on untreated plants; 60-100% of disease on untreated plants.

For the next series, the system named is various species of plant. Put plainly: Plant growth regulating whole plant screen (Table VIII). Particulars: 4000 ppm (4 kg/ha) spray, assessed after 2-6 weeks. The format is in vivo. As for the experimental part: This Example illustrates the plant growth regulating properties of compounds 1, 23 and 68 of Table I when tested on a whole plant screen against various species of plant. The plant species are identified in Table VII with the leaf stage at which they are sprayed.
A formulation of each chemical was applied at 4000 ppm (4 kg/ha in a 1000 l/ha field volume) using a tracksprayer and a SS8004E (Teejet) nozzle.
After spraying the plants were grown in a glasshouse with 25° C. day/22° C. night temperature. Supplementary lighting was supplied when necessary to provide an average photoperiod of 16 hours (14 hours minimum).
After 2-6 weeks in the glasshouse, depending on species and time of year, the plants were visually assessed for morphological characteristics against a control of plant sprayed with a blank formulation.

The next series relates to Erysiphe graminis. Put plainly: Foliar fungal disease test on Erysiphe graminis, plants inoculated 24 hours before treatment (Table V). Format: in vivo. Further details: key: 4: no disease; 3: trace −5% of disease on untreated plants; 6-25% of disease on untreated plants; 1: 26-59% of disease on untreated plants; 60-100% of disease on untreated plants. Conditions: plants inoculated 24 hours before treatment.

The mark [4] stands for this setting: 30 ppm spray to maximum retention.
The mark [5] stands for this setting: 100 ppm spray to maximum retention.
Where [6] appears, read: 300 ppm spray to maximum retention.

For the compound `CO/C=C(/C(=O)OC)c1ccccc1COc1ccccc1` [comparative compound, reference compound], the “phytotoxicity, linear 0-5 scale, Peanut” value in series [1] is reported as 1.5. In addition, the figures for the “phytotoxicity, linear 0-5 scale, Tomato” value in series [2] (setting [4]), in series [2] (setting [5]) and in series [2] (setting [6]) were 2.8, 3.4 and 3.0, respectively.
On to `CO/C=C(/C(=O)OC)c1ccccc1COc1cccc(Cl)c1` [Compound No. 1 of Table I, (E)-methyl 2-[2-(3-chlorophenoxymethyl)phenyl]-3-methoxypropenoate], for which the “phytotoxicity relative to the unsubstituted comparative compound” value was “less phytotoxic” in series [1] (root drench, assessed one week after treatment (conclusion from Table VI)) and “less phytotoxic” in series [2] (sprayed to maximum retention, assessed one week after (final) treatment (conclusion from Table VII)).
Take `CO/C=C(/C(=O)OC)c1ccccc1COc1cccc(Cl)c1` [1 (Table I)]: in series [3], the “disease control grading, CERCOSPORA ARACHIDICOLA (PEANUT)” value (shortened to “disease control grading … (PEANUT)”) is 4; the “disease control grading, P[…] (RICE)” value came out at 4; the “disease control grading, PH[…] (TOMATO)” value came out at 4; the “disease control grading, PUCCINIA RECONDITA (WHEAT)” value (from here on “disease control grading … (WHEAT)”) came to 4. Besides, in series [3], the “disease control grading, VENTURIA INAEQUALIS (APPLE)” value (“disease control grading … (APPLE)” for short) is reported as 4 and the “disease control grading, […] (VINE)” value is given as 4. For the same compound, in the series with various species of plant (Maize (MZ, Earliking)), the “G = Greening effect” value is listed as 1 (1 = 10-30%), the “I = Interligular or internodal length reduction” value is 1 (1 = 10-30%) and the “R = Retardation” value is 1 (1 = 10-30%). Moreover, in the series on various species of plant (Tomato (TO, Ailsa Craig)), the “A = Apical damage” value is on record as 3 (3 = 61-100%), the “P = Phytotoxicity” value is 2 (2 = 11-30%), the “R = Retardation” value is reported as 3 (3 = 61-100%) and the “T = Tillering or side shooting” value is 1 (1 = 10-30%). The “disease control grading, ERYSIPHE GRAMINIS (BARLEY)” value (“disease control grading … (BARLEY)” below) with Erysiphe graminis amounted to 4.
In the case of `CO/C=C(/C(=O)OC)c1ccccc1COc1cccc(Cl)c1` [Compound 1, Table I], in series [1], the “phytotoxicity, linear 0-5 scale, Peanut” value is 0. Moreover, the results for the “phytotoxicity, linear 0-5 scale, Tomato” value in series [2] (setting [4]), in series [2] (setting [5]) and in series [2] (setting [6]) were 0.75, 0.63 and 1.5, respectively.
For `CO/C=C(/C(=O)OC)c1ccccc1COc1ccc(Cl)cc1` [Compound 23, Table I], in series [1], the “phytotoxicity, linear 0-5 scale, Peanut” value was 0.13. Moreover, the “phytotoxicity, linear 0-5 scale, Tomato” value turned out to be 0.3 in series [2] (setting [4]), 1.5 in series [2] (setting [5]) and 2.3 in series [2] (setting [6]).
For the compound `CO/C=C(/C(=O)OC)c1ccccc1COc1ccc(Cl)cc1` [23 (Table I)], in series [3], the “disease control grading … (PEANUT)” value amounted to 4; the “disease control grading, P[…] (RICE)” value turned out to be 4; the “disease control grading, PH[…] (TOMATO)” value was determined as 4; the “disease control grading … (WHEAT)” value came to 4. For the same compound, in series [3], the “disease control grading … (APPLE)” value stood at 4 and the “disease control grading, […] (VINE)” value turned out to be 4. Further, in the series on various species of plant (Tomato (TO, Ailsa Craig)), the “A = Apical damage” value is given as 3 (3 = 61-100%), the “P = Phytotoxicity” value was 3 (3 = 31-50%) and the “R = Retardation” value was 3 (3 = 61-100%). In addition, the “disease control grading … (BARLEY)” value in the series with Erysiphe graminis came out at 4.
Consider `CO/C=C(/C(=O)OC)c1ccccc1COc1cccnc1` [68 (Table I)], for which, in series [3], the “disease control grading … (PEANUT)” value is reported as 3 (trace −5% of disease on untreated plants); the “disease control grading, P[…] (RICE)” value is 3 (trace −5% of disease on untreated plants); the “disease control grading, PH[…] (TOMATO)” value is 3 (trace −5% of disease on untreated plants); the “disease control grading … (WHEAT)” value is 3 (trace −5% of disease on untreated plants). Besides, in series [3], the “disease control grading … (APPLE)” value is recorded as 4 and the “disease control grading, […] (VINE)” value was determined as 4. Besides, the “T = Tillering or side shooting” value in the series on various species of plant (Barley (BR, Atem)) was 1 (1 = 10-30%). Further, in the series on Erysiphe graminis, the “disease control grading … (BARLEY)” value is reported as 4.
As to `CO/C=C(/C(=O)OC)c1ccccc1COc1cccc(/N=C/c2ccccc2)c1` [180 (Table I)], in series [3], the “disease control grading … (PEANUT)” value is reported as 4; the “disease control grading, P[…] (RICE)” value is listed as 2 (6-25% of disease on untreated plants); the “disease control grading, PH[…] (TOMATO)” value is reported as 4; the “disease control grading … (WHEAT)” value was 3 (trace −5% of disease on untreated plants). In series [3], the “disease control grading … (APPLE)” value is given as 0 (60-100% of disease on untreated plants) and the “disease control grading, […] (VINE)” value is recorded as 4. Besides, in the series on Erysiphe graminis, the “disease control grading … (BARLEY)” value is 0 (60-100% of disease on untreated plants).
As for `CO/C=C(/C(=O)OC)c1ccccc1COc1cccc([N+](=O)[O-])c1` [161 (Table I)], in series [3], the “disease control grading … (PEANUT)” value is 3 (trace −5% of disease on untreated plants); the “disease control grading, P[…] (RICE)” value was 0 (60-100% of disease on untreated plants); the “disease control grading, PH[…] (TOMATO)” value is reported as 1 (26-59% of disease on untreated plants); the “disease control grading … (WHEAT)” value is reported as 3 (trace −5% of disease on untreated plants). Also, in series [3], the “disease control grading … (APPLE)” value turned out to be 4 and the “disease control grading, […] (VINE)” value is on record as 4. Moreover, the “disease control grading … (BARLEY)” value with Erysiphe graminis is 3 (trace −5% of disease on untreated plants).
Turning to `CO/C=C(/C(=O)OC)c1ccccc1COc1cc(Cl)cc(OC)c1` [167 (Table I)], in series [3], the “disease control grading … (PEANUT)” value is on record as 3 (trace −5% of disease on untreated plants); the “disease control grading, P[…] (RICE)” value is reported as 4; the “disease control grading, PH[…] (TOMATO)” value stood at 4; the “disease control grading … (WHEAT)” value was 4. In addition, in series [3], the “disease control grading … (APPLE)” value is 4 and the “disease control grading, […] (VINE)” value was 4. Also, the “disease control grading … (BARLEY)” value with Erysiphe graminis is listed as 4.
